From patent US9221827B2, “Antimicrobial compounds and methods of making and using the same” (Melinta Therapeutics, Inc., priority 2011, dated 2015)

The molecules below were run on Escherichia coli strain ATCC25922 (assay: standard microdilution assay to determine minimum inhibitory concentrations (MICs)). Details: Escherichia coli strain ATCC25922, microdilution.
Type: cell-based
How it was run: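 MICs come from CLSI-guided microdilution in 100 μl, run alongside reference-strain performance standards. Values appear as "+" or "−" relative to 16 micrograms/ml, with "N/A" marking missing data.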

Question: With `COc1cc(F)c(-c2cc3cn(-c4ccc(CNCCCN=C(N)N)cc4)c(=O)nc3[nH]2)cc1CCCCN` [Compound 83] as the molecule, how does the “E. coli ATCC25922 MIC” value read?
Answer: + (a “+” indicates that the compound has an MIC value of 16 micrograms/ml or less)

Question: Which “E. coli ATCC25922 MIC” value does the source give for `N=C(N)NCCCNCc1ccc(-c2c[nH]c(NC(=O)Nc3c(OCCCN)cccc3C3CC3)nc2=O)cc1` [Compound 189] here?
Answer: − (a “−” indicates that the compound has an MIC value greater than 16 micrograms/ml)

Question: `N=C(N)NCCCNCc1ccc(-n2cc3cc(-c4cc(CS(=O)(=O)CCN)cc(OC(F)(F)F)c4)[nH]c3nc2=O)cc1` [Compound 16] was tested. Which “E. coli ATCC25922 MIC” value did it give?
Answer: + (a “+” indicates that the compound has an MIC value of 16 micrograms/ml or less)

Question: Which “E. coli ATCC25922 MIC” value does the source give for `CC(CCN)Cc1cc(SC(F)(F)F)cc(-c2cc3cn(-c4ccc([C@H](C)NCCCNC(=N)N)cc4)c(=O)nc3[nH]2)c1` (stereo partly drawn) [Compound 247] here?
Answer: + (a “+” indicates that the compound has an MIC value of 16 micrograms/ml or less)

Question: Which “E. coli ATCC25922 MIC” value does the source give for `CC(N)CCCc1cc(Cl)c(F)c(-c2cc3cn(-c4ccc(C(NCCCNC(=N)N)C(=O)O)cc4)c(=O)nc3[nH]2)c1` (stereo not drawn) [Compound 495] here?
Answer: + (a “+” indicates that the compound has an MIC value of 16 micrograms/ml or less)

Question: For `N=C(N)NCCCNCc1ccc(-n2cc3cc(-c4cc(OC(F)(F)F)cc(C(O)CCCN)c4)[nH]c3nc2=O)cc1` (stereo not drawn) [Compound 42], which “E. coli ATCC25922 MIC” value is on record?
Answer: + (a “+” indicates that the compound has an MIC value of 16 micrograms/ml or less)

Question: With `NCCCCc1cc(-c2cc3cn(-c4ccc(CNCCCN=C(N)N)cc4)c(=O)nc3[nH]2)c(Cl)c(C(F)(F)F)c1` [Compound 64] as the molecule, how does the “E. coli ATCC25922 MIC” value read?
Answer: + (a “+” indicates that the compound has an MIC value of 16 micrograms/ml or less)

Question: How did the “E. coli ATCC25922 MIC” value turn out when `N=C(N)NCCCNCc1ccc(-n2cc3cc(-c4cc(CCC5(CN)CCC5)cc(Cl)c4F)[nH]c3nc2=O)cc1` [Compound 253] was run?
Answer: + (a “+” indicates that the compound has an MIC value of 16 micrograms/ml or less)

Question: Which “E. coli ATCC25922 MIC” value does the source give for `COC(=O)CC(NCCCNC(=N)N)c1ccc(-n2cc3cc(-c4cc(CCCC(C)N)cc(C(F)(F)F)c4)[nH]c3nc2=O)cc1` (stereo not drawn) [Compound 488] here?
Answer: + (a “+” indicates that the compound has an MIC value of 16 micrograms/ml or less)

Question: With `N=C(N)NCCCNCc1ccc(-n2cc3cc(-c4cc(CCC5(CN)CC5)cc(C(F)(F)F)c4)[nH]c3nc2=O)cc1` [Compound 319] as the molecule, how does the “E. coli ATCC25922 MIC” value read?
Answer: + (a “+” indicates that the compound has an MIC value of 16 micrograms/ml or less)

Question: For `NCCCCc1cc(Cl)c(F)c(-c2cc3cn(-c4ccc(CNCCCN=C(N)N)cc4)c(=O)nc3[nH]2)c1` [Compound 91], which “E. coli ATCC25922 MIC” value is on record?
Answer: + (a “+” indicates that the compound has an MIC value of 16 micrograms/ml or less)

Question: With `N#Cc1cc(-c2cc3cn(-c4ccc(CNCCCNC(=N)N)cc4)c(=O)nc3[nH]2)cc(CCCCN)c1Cl` [Compound 118] as the molecule, how does the “E. coli ATCC25922 MIC” value read?
Answer: + (a “+” indicates that the compound has an MIC value of 16 micrograms/ml or less)

Question: For `NC(N)=NCCCNCc1ccc(-n2cc3cc(-c4cccc(CCCO)c4)[nH]c3nc2=O)cc1` [Compound 66], which “E. coli ATCC25922 MIC” value is on record?
Answer: − (a “−” indicates that the compound has an MIC value greater than 16 micrograms/ml)

Question: For `N=C(N)NCCCNCc1ccc(-n2cc3cc(-c4cc(C[S+]([O-])CCN)ccc4F)[nH]c3nc2=O)cc1` (stereo not drawn) [Compound 23], which “E. coli ATCC25922 MIC” value is on record?
Answer: + (a “+” indicates that the compound has an MIC value of 16 micrograms/ml or less)

Question: `C=CC(NCCCNC(=N)N)c1ccc(-n2cc3cc(-c4cc(CCCC(C)N)cc(SC(F)(F)F)c4)[nH]c3nc2=O)cc1` (stereo not drawn) [Compound 502] was tested. Which “E. coli ATCC25922 MIC” value did it give?
Answer: + (a “+” indicates that the compound has an MIC value of 16 micrograms/ml or less)

Question: With `Cc1cc(CCCC(C)N)cc(-c2cc3cn(-c4ccc(CNCCCNC(=N)N)cc4)c(=O)nc3[nH]2)c1F` (stereo not drawn) [Compound 219] as the molecule, how does the “E. coli ATCC25922 MIC” value read?
Answer: + (a “+” indicates that the compound has an MIC value of 16 micrograms/ml or less)

Question: For `C[S+]([O-])c1cc(CCCCN)cc(-c2cc3cn(-c4ccc(CNCCCNC(=N)N)cc4)c(=O)nc3[nH]2)c1` (stereo not drawn) [Compound 32], which “E. coli ATCC25922 MIC” value is on record?
Answer: + (a “+” indicates that the compound has an MIC value of 16 micrograms/ml or less)

Question: With `Cc1cc(-c2cc3cn(-c4ccc(CNCCCN=C(N)N)cc4)c(=O)nc3[nH]2)cc(CCCCN)c1F` [Compound 73] as the molecule, how does the “E. coli ATCC25922 MIC” value read?
Answer: + (a “+” indicates that the compound has an MIC value of 16 micrograms/ml or less)

Question: `CC(N)CCc1cc(Cl)c(F)c(-c2cc3cn(-c4ccc(CNCCCNC(=N)N)cc4)c(=O)nc3[nH]2)c1` (stereo not drawn) [Compound 278] was tested. Which “E. coli ATCC25922 MIC” value did it give?
Answer: + (a “+” indicates that the compound has an MIC value of 16 micrograms/ml or less)

Question: `CC(C)(CN)CCc1cc(OC(F)(F)F)cc(-c2cc3cn(-c4ccc(CNCCCNC(=N)N)cc4)c(=O)nc3[nH]2)c1` [Compound 104] was tested. Which “E. coli ATCC25922 MIC” value did it give?
Answer: + (a “+” indicates that the compound has an MIC value of 16 micrograms/ml or less)

Question: For `CC(C)c1cc(CCC2(CN)CCC2)cc(-c2cc3cn(-c4ccc(CNCCCNC(=N)N)cc4)c(=O)nc3[nH]2)c1` [Compound 103], which “E. coli ATCC25922 MIC” value is on record?
Answer: + (a “+” indicates that the compound has an MIC value of 16 micrograms/ml or less)

Question: For `CC(N)CCCc1cc(-c2cc3cn(-c4ccc(C(CCO)NCCCNC(=N)N)cc4)c(=O)nc3[nH]2)cc(C(F)(F)F)c1` (stereo not drawn) [Compound 505], which “E. coli ATCC25922 MIC” value is on record?
Answer: + (a “+” indicates that the compound has an MIC value of 16 micrograms/ml or less)

Question: How did the “E. coli ATCC25922 MIC” value turn out when `C=C[C@H](NCCCNC(=N)N)c1ccc(-n2cc3cc(-c4cc(CCC[C@H](C)N)cc(Cl)c4F)[nH]c3nc2=O)cc1` [Compound 475] was run?
Answer: + (a “+” indicates that the compound has an MIC value of 16 micrograms/ml or less)

Question: How did the “E. coli ATCC25922 MIC” value turn out when `N=C(N)NCCCNCc1ccc(-n2cc3cc(-c4c(F)c(F)cc(CCCCN)c4F)[nH]c3nc2=O)cc1` [Compound 6] was run?
Answer: + (a “+” indicates that the compound has an MIC value of 16 micrograms/ml or less)

Question: How did the “E. coli ATCC25922 MIC” value turn out when `C[C@H](N)CCCc1cc(SC(F)F)cc(-c2cc3cn(-c4ccc(CNCCCNC(=N)N)cc4)c(=O)nc3[nH]2)c1` [Compound 305] was run?
Answer: + (a “+” indicates that the compound has an MIC value of 16 micrograms/ml or less)

Same assay, conditions: Escherichia coli strain ATCC25922, standard microdilution assay

Question: For `C[C@H](N)CCCc1cc2c(c(-c3cc4cn(-c5ccc([C@H](C)NCCCNC(=N)N)cc5)c(=O)nc4[nH]3)c1)CC=C2` [Compound 457], which “E. coli ATCC25922 MIC” value is on record?
Answer: + (a “+” indicates that the compound has an MIC value of 16 micrograms/ml or less)

Question: With `N=C(N)NCCCNCc1ccc(-n2cc3cc(-c4cc(OC(F)(F)F)cc(C5CCC(CN)O5)c4)[nH]c3nc2=O)cc1` (stereo not drawn) [Compound 435] as the molecule, how does the “E. coli ATCC25922 MIC” value read?
Answer: + (a “+” indicates that the compound has an MIC value of 16 micrograms/ml or less)

Question: For `CC(C)[C@H](NCCCNC(=N)N)c1ccc(-n2cc3cc(-c4cc(CCC[C@H](C)N)cc(Cl)c4F)[nH]c3nc2=O)cc1` [Compound 433], which “E. coli ATCC25922 MIC” value is on record?
Answer: + (a “+” indicates that the compound has an MIC value of 16 micrograms/ml or less)

Question: For `N=C(N)NCCCNCc1ccc(-n2cc3cc(-c4cc(CCC[C@@H](N)CO)cc(Cl)c4F)[nH]c3nc2=O)cc1` [Compound 342], which “E. coli ATCC25922 MIC” value is on record?
Answer: + (a “+” indicates that the compound has an MIC value of 16 micrograms/ml or less)

Question: Which “E. coli ATCC25922 MIC” value does the source give for `Cc1c(CC(C)C)cc(CCC[C@H](C)N)cc1-c1cc2cn(-c3ccc([C@H](C)NCCCNC(=N)N)cc3)c(=O)nc2[nH]1` [Compound 453] here?
Answer: + (a “+” indicates that the compound has an MIC value of 16 micrograms/ml or less)
